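1) Cells in 96-well plates. 2) Compound, 48 h, 5 concentrations. 3) Linear interpolation between surrounding doses. 4) Unreached endpoint = highest concentration. The concentration for 50% growth inhibition is given as GI50. TGI denotes the concentration required for complete inhibition of growth.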
Legend:
Assay in all cases: NCI tumour cell line growth inhibition, 48 h
TK-10 renal = tested on: TK-10 renal
A498 renal = tested on: A498 renal
U251 CNS = tested on: U251 CNS
786-0 renal = tested on: 786-0 renal
NCI-H23 lung = tested on: NCI-H23 lung
MCF7 breast = tested on: MCF7 breast
SK-MEL-2 melanoma = tested on: SK-MEL-2 melanoma
UO-31 renal = tested on: UO-31 renal
A549 NSCLC = tested on: A549 NSCLC
SK-MEL-28 melanoma = tested on: SK-MEL-28 melanoma

SMILES: CC(=O)O[C@H]1C(=O)[C@@]2(C)C(C(OC(=O)c3ccccc3)[C@]3(O)C[C@H](OC(=O)C(OC(=O)CCCC(=O)NCCCN(C)C)C(NC(=O)c4ccccc4)c4ccccc4)C(C)=C1C3(C)C)C1(OC(C)=O)COC1C[C@@H]2O (stereo partly drawn)
- TGI (TK-10 renal): 33.3 µM
- TGI (A498 renal): 45.6 µM
- TGI (U251 CNS): 20.8 µM
- TGI (786-0 renal): 11 µM
- TGI (NCI-H23 lung): 18.2 µM
- TGI (MCF7 breast): 48.5 µM
- TGI (SK-MEL-2 melanoma): 24.3 µM
- TGI (UO-31 renal): 64 µM
- TGI (A549 NSCLC): > 85.3 µM
- TGI (SK-MEL-28 melanoma): 55.5 µM

SMILES: CN(C)C=Nc1ccn(CCO)c(=O)n1
- TGI (TK-10 renal): > 100 µM
- TGI (A498 renal): > 100 µM
- TGI (U251 CNS): > 100 µM
- TGI (786-0 renal): > 100 µM
- TGI (NCI-H23 lung): > 100 µM
- TGI (SK-MEL-2 melanoma): > 100 µM
- TGI (UO-31 renal): > 100 µM
- TGI (A549 NSCLC): > 100 µM
- TGI (SK-MEL-28 melanoma): > 100 µM

SMILES: Cn1cc(C(=O)c2ccccc2)c2ccccc2c1=O
- TGI (TK-10 renal): > 100 µM
- TGI (786-0 renal): > 100 µM
- TGI (SK-MEL-2 melanoma): > 100 µM
- TGI (A549 NSCLC): > 100 µM
- TGI (SK-MEL-28 melanoma): > 100 µM

SMILES: Nc1ncnc2c1ncn2[C@]1(CO)C=C(CO)C(O)C1O (stereo partly drawn)
- TGI (TK-10 renal): > 100 µM
- TGI (A498 renal): > 100 µM
- TGI (U251 CNS): > 100 µM
- TGI (786-0 renal): > 100 µM
- TGI (NCI-H23 lung): > 100 µM
- TGI (SK-MEL-2 melanoma): > 100 µM
- TGI (A549 NSCLC): > 100 µM
- TGI (SK-MEL-28 melanoma): > 100 µM

SMILES: COc1ccc(C2=C(Cl)c3cc(OC)c(OC)cc3C2OC)cc1OC (stereo not drawn)
- TGI (TK-10 renal): > 100 µM
- TGI (A498 renal): > 100 µM
- TGI (786-0 renal): > 100 µM
- TGI (NCI-H23 lung): > 100 µM
- TGI (SK-MEL-2 melanoma): > 100 µM
- TGI (UO-31 renal): > 100 µM
- TGI (A549 NSCLC): > 100 µM
- TGI (SK-MEL-28 melanoma): > 100 µM

SMILES: Cn1c2c(c3ccccc31)CCN(CCCCN1CCCCC1)C2=O
- TGI (TK-10 renal): > 100 µM
- TGI (A498 renal): > 100 µM
- TGI (U251 CNS): > 100 µM
- TGI (786-0 renal): > 100 µM
- TGI (NCI-H23 lung): > 100 µM
- TGI (SK-MEL-2 melanoma): > 100 µM
- TGI (UO-31 renal): > 100 µM
- TGI (A549 NSCLC): > 100 µM
- TGI (SK-MEL-28 melanoma): > 100 µM

SMILES: N#CCCN(c1ccc(C=Nc2ccccc2)cc1)S(=O)(=O)c1ccccc1
- TGI (TK-10 renal): > 100 µM
- TGI (A498 renal): > 100 µM
- TGI (786-0 renal): > 100 µM
- TGI (NCI-H23 lung): > 100 µM
- TGI (SK-MEL-2 melanoma): > 100 µM
- TGI (UO-31 renal): > 100 µM
- TGI (A549 NSCLC): > 100 µM
- TGI (SK-MEL-28 melanoma): > 100 µM

SMILES: Cc1cc(O)c(=O)cc2c1C[C@H]1CC(C)(C)/C=C/C[C@]3(C)Oc4cc(=O)c(O)cc(C)c4C[C@H]3C[C@H](O)[C@@]1(C)O2
- GI50 (TK-10 renal): 0.0211 µM
- TGI (TK-10 renal): 9.95 µM
- GI50 (786-0 renal): 0.0327 µM
- TGI (786-0 renal): 15.4 µM
- GI50 (NCI-H23 lung): < 0.01 µM
- TGI (NCI-H23 lung): 0.0345 µM
- GI50 (MCF7 breast): < 0.01 µM
- TGI (MCF7 breast): > 100 µM
- GI50 (UO-31 renal): 0.0213 µM
- TGI (UO-31 renal): 0.198 µM
- GI50 (A549 NSCLC): < 0.01 µM
- TGI (A549 NSCLC): 2.13 µM
- GI50 (SK-MEL-28 melanoma): 0.0423 µM
- TGI (SK-MEL-28 melanoma): 19.9 µM

SMILES: O=C(NCCCCCCCCCCCCNC(=O)c1cccc2ccccc12)c1cccc2ccccc12
- TGI (TK-10 renal): > 87.1 µM
- TGI (A498 renal): > 74.4 µM
- TGI (U251 CNS): > 59.5 µM
- TGI (786-0 renal): > 71.7 µM
- TGI (NCI-H23 lung): > 100 µM
- TGI (SK-MEL-2 melanoma): > 100 µM
- TGI (UO-31 renal): > 61 µM
- TGI (A549 NSCLC): > 100 µM
- TGI (SK-MEL-28 melanoma): > 100 µM

SMILES: CN(CCN1C(=O)c2cc([N+](=O)[O-])cc3cc([N+](=O)[O-])cc(c23)C1=O)CCN1C(=O)c2cc([N+](=O)[O-])cc3cc([N+](=O)[O-])cc(c23)C1=O
- TGI (TK-10 renal): > 100 µM
- TGI (A498 renal): > 100 µM
- TGI (U251 CNS): > 100 µM
- TGI (786-0 renal): 13.7 µM
- TGI (NCI-H23 lung): 27.9 µM
- TGI (SK-MEL-2 melanoma): 5.21 µM
- TGI (UO-31 renal): > 20.8 µM
- TGI (A549 NSCLC): > 100 µM
- TGI (SK-MEL-28 melanoma): 20.3 µM

SMILES: CS(=O)(=O)Nc1cncc(-c2ccc3ncnc(Nc4ccc(F)c(Cl)c4)c3c2)c1
- GI50 (A498 renal): 0.57 µM
- TGI (A498 renal): 3.2 µM
- GI50 (U251 CNS): 3.03 µM
- TGI (U251 CNS): 15.2 µM
- GI50 (786-0 renal): 2.7 µM
- TGI (786-0 renal): 14.8 µM
- GI50 (NCI-H23 lung): 2.41 µM
- TGI (NCI-H23 lung): 13.1 µM
- GI50 (MCF7 breast): 1.49 µM
- TGI (MCF7 breast): 8.77 µM
- GI50 (SK-MEL-2 melanoma): 1.5 µM
- TGI (SK-MEL-2 melanoma): 3.79 µM
- GI50 (UO-31 renal): 1.76 µM
- TGI (UO-31 renal): 13.8 µM
- GI50 (A549 NSCLC): 3.75 µM
- TGI (A549 NSCLC): 17.4 µM
- GI50 (SK-MEL-28 melanoma): 2.65 µM
- TGI (SK-MEL-28 melanoma): 15.6 µM

SMILES: CC1=Nc2ccccc2S/C1=C(/C)NNS(=O)(=O)c1ccc(C)cc1
- TGI (TK-10 renal): > 100 µM
- TGI (A498 renal): > 100 µM
- TGI (U251 CNS): > 100 µM
- TGI (786-0 renal): > 100 µM
- TGI (NCI-H23 lung): > 100 µM
- TGI (SK-MEL-2 melanoma): > 100 µM
- TGI (UO-31 renal): > 100 µM
- TGI (A549 NSCLC): > 100 µM
- TGI (SK-MEL-28 melanoma): > 100 µM

SMILES: CN1C(=O)CCC1(O)C1C=CC=CC1 (stereo not drawn)
- TGI (TK-10 renal): > 100 µM
- TGI (U251 CNS): > 100 µM
- TGI (786-0 renal): > 100 µM
- TGI (NCI-H23 lung): > 100 µM
- TGI (UO-31 renal): > 100 µM
- TGI (A549 NSCLC): > 100 µM
- TGI (SK-MEL-28 melanoma): > 100 µM

SMILES: CCOC(=O)/C(=C/N1CCN(C(=O)c2ccco2)C1=S)C(=O)c1ccccc1
- GI50 (TK-10 renal): 12.4 µM
- TGI (TK-10 renal): 34 µM
- GI50 (U251 CNS): 11.5 µM
- TGI (U251 CNS): > 50 µM
- GI50 (786-0 renal): 12.9 µM
- TGI (786-0 renal): 45.2 µM
- GI50 (NCI-H23 lung): 7.7 µM
- TGI (NCI-H23 lung): 14.7 µM
- GI50 (UO-31 renal): 9.99 µM
- TGI (UO-31 renal): 19.3 µM
- GI50 (A549 NSCLC): 11.6 µM
- TGI (A549 NSCLC): 36.3 µM
- GI50 (SK-MEL-28 melanoma): 22.2 µM
- TGI (SK-MEL-28 melanoma): > 50 µM

SMILES: NNC(=S)N/N=C(\C(=O)Nc1cccc(O)c1)C1C(=O)NC(=S)NC1=O
- TGI (TK-10 renal): > 100 µM
- TGI (A498 renal): > 100 µM
- TGI (U251 CNS): > 100 µM
- TGI (786-0 renal): > 100 µM
- TGI (MCF7 breast): > 100 µM
- TGI (SK-MEL-2 melanoma): > 100 µM
- TGI (UO-31 renal): > 100 µM
- TGI (A549 NSCLC): > 100 µM
- TGI (SK-MEL-28 melanoma): > 100 µM

SMILES: COc1ccc(C/C(=N/O)C(=O)NCCc2cc(Br)c(OCCCN(C)C)c(Br)c2)cc1Br
- TGI (TK-10 renal): 59.8 µM
- TGI (U251 CNS): 32.8 µM
- TGI (786-0 renal): 48.1 µM
- TGI (SK-MEL-2 melanoma): 37.4 µM
- TGI (UO-31 renal): 42.3 µM
- TGI (A549 NSCLC): 38.4 µM
- TGI (SK-MEL-28 melanoma): 35.2 µM

SMILES: Cc1cc(NCCCCCCCCNc2cc(C)nc3cc(N)ccc23)c2ccc(N)cc2n1
- TGI (TK-10 renal): > 100 µM
- TGI (A498 renal): > 100 µM
- TGI (U251 CNS): 24.3 µM
- TGI (786-0 renal): 53.7 µM
- TGI (NCI-H23 lung): 52.8 µM
- TGI (SK-MEL-2 melanoma): 40.4 µM
- TGI (UO-31 renal): > 100 µM
- TGI (A549 NSCLC): > 100 µM
- TGI (SK-MEL-28 melanoma): 48.3 µM

SMILES: COC(=O)CC(NC(=O)OCc1ccccc1)C(C(C)=O)C(=O)OCc1ccccc1 (stereo not drawn)
- TGI (TK-10 renal): > 31.6 µM
- TGI (A498 renal): > 31.6 µM
- TGI (U251 CNS): > 31.6 µM
- TGI (786-0 renal): > 31.6 µM
- TGI (NCI-H23 lung): > 31.6 µM
- TGI (UO-31 renal): > 31.6 µM
- TGI (A549 NSCLC): > 31.6 µM
- TGI (SK-MEL-28 melanoma): > 31.6 µM

SMILES: Cc1cn(C2CC(O)C(COC(=O)c3ccccc3)O2)c(=O)[nH]c1=O (stereo not drawn)
- TGI (TK-10 renal): > 100 µM
- TGI (A498 renal): > 100 µM
- TGI (U251 CNS): > 100 µM
- TGI (786-0 renal): > 100 µM
- TGI (NCI-H23 lung): > 100 µM
- TGI (A549 NSCLC): > 100 µM
- TGI (SK-MEL-28 melanoma): > 100 µM

SMILES: O=C1C2Nc3ccccc3SC2C(=O)N1c1ccc(Br)cc1 (stereo not drawn)
- TGI (TK-10 renal): > 100 µM
- TGI (A498 renal): 82.5 µM
- TGI (786-0 renal): 46.6 µM
- TGI (NCI-H23 lung): > 100 µM
- TGI (SK-MEL-2 melanoma): > 100 µM
- TGI (UO-31 renal): 68.2 µM
- TGI (A549 NSCLC): > 100 µM
- TGI (SK-MEL-28 melanoma): > 100 µM

SMILES: CC(=O)OCC1OC(n2cc(F)c(=O)[nH]c2=O)C(NC(=O)N(CCCl)N=O)C(OC(C)=O)C1OC(C)=O (stereo not drawn)
- TGI (TK-10 renal): > 100 µM
- TGI (A498 renal): > 100 µM
- TGI (U251 CNS): > 100 µM
- TGI (786-0 renal): > 100 µM
- TGI (NCI-H23 lung): > 100 µM
- TGI (UO-31 renal): > 100 µM
- TGI (A549 NSCLC): > 100 µM
- TGI (SK-MEL-28 melanoma): > 100 µM
